In patent publication US8003759B2, “Protein kinase-inducible domains” (University of Delaware, priority 2006, dated 2011):
Entries after “also recorded” stand apart in the source; their conditions may differ. Like-named read-outs stand apart in the source and are kept apart here.

Columns and labels:
[1] = Tb^3+ binding of pKID peptides by fluorescence titration (dissociation constant determination); conditions: for Kd: 5 mM HEPES (pH 7.8), 100 mM NaCl, read-out: Kd of peptide-Tb^3+ complex
Experimental: Fluorescence spectra were collected on a Photon Technology International fluorescence spectrometer model QM-3/2003 with a CW source and a Hamamatsu R928PMT. All experiments were conducted with an excitation wavelength of 280 nm. 6 nm excitation and emission slit widths were used unless otherwise indicated. All spectra were acquired at room temperature, collecting data every 1 nm with a scan rate of 1 nm per second. At least 3 independent binding titrations were conducted for each peptide. All spectra are uncorrected and have not been normalized, and only representative (median), non-averaged spectra are shown, unless otherwise indicated. All fluorescence experiments were conducted using a 495 nm highpass filter (model 495FG03-25 AM-53074; Andover Corporation, Andover, N.H.) on the emission monochromator.
Peptide solutions were prepared by dilution of stock solutions into 5 mM HEPES buffer (pH 7.8) with 100 mM NaCl. Spectra were acquired in 10 mm quartz fluorescence cells (Sterna). Tb^3+ titrations were conducted by dilution of a Tb^3+ solution into a peptide solution as described above. Each individual emission spectrum represents an independently prepared solution of peptide and metal. The Tb^3+ emission band at 544 nm was used to evaluate metal binding.
To determine dissociation constants for Tb^3+-peptide complexes, titrations were conducted in solutions of 5 mM HEPES (pH 7.8) and 100 mM NaCl, with 10 nm emission and excitation slit widths. All fluorescence experiments were conducted using a 495 nm highpass filter (model 495FG03-25 AM-53074; Andover Corporation, Andover, N.H.) on the emission monochromator. All TbCl3 solutions were standardized by titration with a standard solution of EDTA (1 mM) in the presence of xylenol orange indicator (10 μM) and sodium acetate buffer (pH 6.0, 10 mM). 500 μL of the 1 mM Tb^3+ stock solution was diluted to 1 mL to make a 0.5 mM solution and EDTA (1 mM) was added (approximately 500 μL) until the end point was reached (see FIGS. 11-13). The solutions were prepared as serial dilutions of Tb^3+, from 3.3 μM to 450 μM Tb^3+, and the fluorescence emission scan of each solution was acquired. Data points at the emission maximum of 544 nm were plotted against Tb^3+ concentration to calculate the final Kd. Data points indicate the average of at least three independent titrations. Error bars indicate standard error. The data were fit to equation (1) using a non-linear least squares fitting algorithm (KaleidaGraph version 3.6, Synergy Software), where Q fluorescence, Qo=fluorescence of the apopeptide, Qc=fluorescence of peptide-metal complex, Mt=total metal concentration, Kd=dissociation constant and Pt=total peptide concentration (10 μM). Dissociation constants in the presence of 2 mM Mg^2+ or 100 μM Ca^2+ were measured for pKID-PKA peptides to study the effect of these metals on Tb^3+-peptide complex formation.
Dissociation constants of the non-phosphorylated peptides were calculated by defining the maximum fluorescence of the non-phosphorylated peptide-Tb^3+ complex as equal to the maximum fluorescence of the phosphorylated peptide-Tb^3+ complex: Qc (non-phosphorylated peptide)=Qc (phosphorylated peptide), with Qc=the calculated fluorescence of the fully bonded phosphopeptide-Tb^3+ complex. Although the assumption of similar maximum fluorescence intensities of the Tb^3+ complexes of the non-phosphorylated and phosphorylated peptides may not be valid, it provides a measure of relative Tb^3+ fluorescence of the phosphorylated and non-phosphorylated peptides.

Protein Kinase A (PKA) [2] = target: T1, Protein Kinase A (PKA) (Mus musculus, UniProt P05132); test: Phosphorylation of pKID peptides by protein kinase A (HPLC, fluorescence, ESI-MS); format: biochemical; conditions: 200 μM peptide, 2.5 units PKA, 35° C., 12 hrs
T1 construct: purchased New England Biolabs
Experimental: Kinase specificity for protein kinase-inducible domain peptides was examined by incubation of protein kinase A with pKID-PKA, pKID-PKC and pKID-Erk. Experiments were conducted with 2.4 mM ATP (3 μL of freshly prepared 20 mM ATP), PKA buffer (3 μL of 10× buffer), and peptide (200 μM) with water in 25 μL final reaction volume. After incubation at 35° C. for 5 min, PKA enzyme solution (1 μL, 2.5 units) was added to start the reaction. After 12-14 hrs at 35° C., the reaction mixture was analyzed by fluorescence, HPLC and ESI-MS. The kinase reaction mixtures were analyzed by fluorescence by diluting the reaction mixture with 1 mL of a solution containing 5 mM HEPES buffer (pH 7.8), 100 mM NaCl, and 50 μM Tb^3+, and the resulting solution analyzed by fluorescence. Fluorescence experiments were conducted with 10 nm slit widths and a 495 nm highpass filter on the emission monochromator. Fluorescence data (FIG. 7) represent the average of four independent trials. Error bars indicate standard error.

[3] = Ho^3+ competition experiment (reduction of Tb^3+ luminescence); format: binding; conditions: 10 μM phosphorylated peptide, 10 μM Tb^3+, increasing Ho^3+
Experimental: Competition experiments were used to confirm site-specific lanthanide binding and to address whether pKID peptides are a general phosphorylation-dependent lanthanide-binding motif. In order to determine whether Tb^3+ binding is site-specific, competition experiments were performed with Ho^3+. Ho^3+ solutions were prepared from hydrates of the chloride salts in ultrapure water. The phosphorylated pKID-PKC peptide was tested for Ho^3+ binding by addition of aliquots of Ho^3+ to a solution containing 10 μM phosphorylated pKID-PKC and 10 μM Tb^3+. pKID-Tb^3+-Ho^3+ solutions were allowed to equilibrate for 2 minutes. Fluorescence experiments were conducted using a 495 nm highpass filter (model 495FG03-25 AM-53074; Andover Corporation, Andover, N.H.) on the emission monochromator and 8 nm slit widths.

[4] = test system: endogenous kinase present within the HeLa extracts; test: Phosphorylation of pKID-PKA in HeLa nuclear extract in the absence of added kinase; format: biochemical; conditions: no added kinase
Experimental: Phosphorylation of pKID-PKA in HeLa nuclear extract in the absence of added kinase was also examined. Reaction mixtures were prepared as described previously to a final volume of 25 μL, but protein kinase A was not added. After addition of ATP and incubation for the indicated times, the reaction mixtures (25 μL, 500 μM peptide) were diluted with 200 μL of a solution containing […] buffer (pH 7.8), 100 mM NaCl and 100 μM Tb^3+ and analyzed by fluorescence as described previously. pKID-PKA was phosphorylated by endogenous kinase present within the HeLa extracts to approximately 10% conversion as determined by fluorescence and HPLC (see FIG. 5, right).

Protein Kinase A (PKA) [5] = target: T1, Protein Kinase A (PKA); test: Phosphorylation of pKID-PKA by protein kinase A in HeLa nuclear extract; format: biochemical; conditions: HeLa nuclear extract with added PKA, 3 h incubation

Substance	Kd ([1]; 10 μM peptide) [µM]	Kd ([1]; + 2 mM Mg^2+) [µM]	phosphorylation by PKA (result in words), determined by HPLC (Protein Kinase A (PKA) [2])	other results
Ac-DKNADGWIDAApSLK-NH2 (DKNADGWIDAASLK; HELM PEPTIDE1{[ac].D.K.N.A.D.G.W.I.D.A.A.[O=C([C@H](COP(=O)(O)O)N[*:1])[*:2]].L.K.[am]}$$$$V2.0; SMILES CC[C@H](C)[C@H](NC(=O)[C@H](Cc1c[nH]c2ccccc12)NC(=O)CNC(=O)[C@H](CC(=O)O)NC(=O)[C@H](C)NC(=O)[C@H](CC(N)=O)NC(=O)[C@H](CCCCN)NC(=O)[C@H](CC(=O)O)NC(C)=O)C(=O)N[C@@H](CC(=O)O)C(=O)N[C@@H](C)C(=O)N[C@@H](C)C(=O)N[C@@H](COP(=O)(O)O)C(=O)N[C@@H](CC(C)C)C(=O)N[C@@H](CCCCN)C(N)=O) [phosphorylated pKID-PKC]	216			
Ac-DKNADGWIDAApSPA-NH2 (DKNADGWIDAASPA; HELM PEPTIDE1{[ac].D.K.N.A.D.G.W.I.D.A.A.[O=C([C@H](COP(=O)(O)O)N[*:1])[*:2]].P.A.[am]}$$$$V2.0; SMILES CC[C@H](C)[C@H](NC(=O)[C@H](Cc1c[nH]c2ccccc12)NC(=O)CNC(=O)[C@H](CC(=O)O)NC(=O)[C@H](C)NC(=O)[C@H](CC(N)=O)NC(=O)[C@H](CCCCN)NC(=O)[C@H](CC(=O)O)NC(C)=O)C(=O)N[C@@H](CC(=O)O)C(=O)N[C@@H](C)C(=O)N[C@@H](C)C(=O)N[C@@H](COP(=O)(O)O)C(=O)N1CCC[C@H]1C(=O)N[C@@H](C)C(N)=O) [phosphorylated pKID-Erk]	124			
Ac-DKNADGWIDRApSLA-NH2 (DKNADGWIDRASLA; HELM PEPTIDE1{[ac].D.K.N.A.D.G.W.I.D.R.A.[O=C([C@H](COP(=O)(O)O)N[*:1])[*:2]].L.A.[am]}$$$$V2.0; SMILES CC[C@H](C)[C@H](NC(=O)[C@H](Cc1c[nH]c2ccccc12)NC(=O)CNC(=O)[C@H](CC(=O)O)NC(=O)[C@H](C)NC(=O)[C@H](CC(N)=O)NC(=O)[C@H](CCCCN)NC(=O)[C@H](CC(=O)O)NC(C)=O)C(=O)N[C@@H](CC(=O)O)C(=O)N[C@@H](CCCNC(=N)N)C(=O)N[C@@H](C)C(=O)N[C@@H](COP(=O)(O)O)C(=O)N[C@@H](CC(C)C)C(=O)N[C@@H](C)C(N)=O) [phosphorylated pKID-PKA]	220	174		change of dissociation constant of phosphopeptide-Tb^3+ complex in the presence of Ca^2+ ([1]; 100 μM Ca^2+): did not significantly change; Kd ([1]; + 100 μM Ca^2+): 228 µM
DKNADGWIDAASLK [non-phosphorylated pKID-PKC, Ac-DKNADGWIDAASLK-NH2, EF hand domain with Glu12 replaced by serine and a protein kinase C recognition domain]	> 6000		no evidence of phosphorylation; also recorded: not phosphorylated	Ho^3+ binding observed via Tb^3+ luminescence [3]: loss of Tb^3+ luminescence
DKNADGWIDAASPA [non-phosphorylated pKID-Erk, Ac-DKNADGWIDAASPA-NH2, EF hand domain with Glu12 replaced by serine and an Erk recognition domain]	> 3000		no evidence of phosphorylation; also recorded: not phosphorylated	
DKNADGWIDRASLA [non-phosphorylated pKID-PKA, Ac-DKNADGWIDRASLA-NH2, EF hand domain with Glu12 replaced by serine and a protein kinase A recognition domain]	> 5000	> 5000		phosphorylation conversion determined by fluorescence and HPLC [4]: approximately 10%; Tb^3+ binding in the presence of Mg^2+ ([1]; 2 mM Mg^2+): not observed; conversion to phosphorylated peptide by PKA, determined by HPLC (Protein Kinase A (PKA) [2]): > 95%; phosphorylation conversion measured by HPLC (Protein Kinase A (PKA) [5]): 75%
